Results taken from US20130296346A1, “DIPHENYL-AMINE DERIVATIVES: USES, PROCESS OF SYNTHESIS AND PHARMACEUTICAL COMPOSITIONS” (Faes Farma, S.A., priority 2010, published 2013).

Columns and labels:
[1] = Cytotoxicity for human non-tumoral cells, XTT; assay type: cell-based; settings: Fibroblasts
Method: The cytotoxicity of the compounds for human non-tumoral cells was studied in fibroblasts, HUVEC cells and resting PBLs (Peripheral Blood lymphocytes).
Distinct amounts of exponentially growing cells were seeded in 96-well flat-bottomed microtiter plates in a final volume of 100 μl were seeded in 96-well flat-bottomed microtiter plates, and incubated at 37° C. in a humidified atmosphere of 5% CO2/95% air for 24 h to allow the cells attach to the plates. Then, cells were incubated with different concentrations of the assayed compound at 37° C. under the 5% CO2/95% air atmosphere for 72 h. Cell proliferation was quantified using the XTT cell proliferation kit (Roche Molecular Biochemicals, Mannheim, Germany) following the manufacturer's instructions. Briefly, a freshly prepared mixture solution (50 μl) of XTT labelling reagent and PMS (N-methyldibenzopyrazine methyl sulfate) electron coupling reagent was added to each well. The resulting mixtures were further incubated for 4 h in a humidified atmosphere (37° C., 5% CO2), and the absorbance of the formazan product generated was measured with a microtiter plate reader at a test wavelength of 490 nm and a reference wavelength of 655 nm. The IC50 (50% inhibitory concentration) was then calculated as the drug concentration causing a 50% inhibition of cell proliferation. Data are shown as mean values of four independent experiments each performed in triplicate.

[2] = test system: EHEB (CLL); assay: Apoptosis, sub-G1 peak by flow cytometry; assay type: cell-based, human; settings: 10 μM, 24 h
Method: (§1) Incubation of Compound 3 with different human hematological cancer cell lines, including CLL, MM, acute T-cell and acute myeloid leukaemia cell lines, induced apoptosis, as assessed by the appearance of cells with a DNA content less than G1, characteristic of early apoptosis (sub-G1 peak; after 6-9 h treatment). More than 20% apoptosis was induced after 24 h treatment of 10 μM Compound 3 with EHEB (CLL), RPMI-8226 (MM), Jurkat (acute T-cell leukaemia) and HL-60 (acute myeloid leukaemia) cells.
(§2) Induction of apoptosis in EHEB cells by Compound 3 (FIG. 7A): EHEB cells were incubated for the indicated times with 10 μM Compound 3, and apoptosis was then quantitated as percentage of cells in the sub-G1 region in cell cycle analysis by flow cytometry. The position of the sub-G1 peak (hypodiploidy), integrated by apoptotic cells, as well as the G0/G1 and G2/M peaks are indicated by arrows. Untreated control cells were run in parallel. The percentage of cells with a DNA content less than G1 (sub-G1) is indicated in each histogram. The experiment shown is representative of three performed. Briefly, cells (5×10^5) were centrifuged and fixed overnight in 70% ethanol at 4° C. Cells were washed 3 times with PBS, incubated for 1 h with 1 mg/ml RNaseA and 20 μg/ml propidium iodide at room temperature, and then analyzed for cell cycle with a Becton Dickinson FACS Calibur flow cytometer (San Jose, Calif.). Quantitation of apoptotic cells was calculated as the percentage of cells in the sub-G1 region (hypodiploidy) in cell cycle analysis.

[3] = test system: HL-60 (acute myeloid leukaemia); assay: Apoptosis, sub-G1 peak by flow cytometry; assay type: cell-based, human; settings: 10 μM, 24 h
Method: as §1, §2

[4] = test system: Jurkat (acute T-cell leukaemia); assay: Apoptosis, sub-G1 peak by flow cytometry; assay type: cell-based, human; settings: 10 μM, 24 h
Method: as §1, §2

[5] = test system: RPMI-8226 (MM); assay: Apoptosis, sub-G1 peak by flow cytometry; assay type: cell-based, human; settings: 10 μM, 24 h
Method: as §1, §2

[6] = test system: EHEB cells; assay: Expression of proteins by immunoblotting in EHEB cells; assay type: cell-based, human; settings: 10 μM
Method: Expression of different proteins in Compound 3-treated EHEB cells (FIG. 7B). Cells were treated with 10 μM Compound 3 for the indicated times and analyzed by immunoblotting with specific antibodies for the indicated proteins. The migration positions of the different proteins are indicated. β-actin was used as a loading control. Data shown are representative of three experiments performed.

[7] = test system: HCT-116 and SW620 cells; assay: Expression of apoptosis-related proteins by immunoblotting; assay type: cell-based, human; settings: colon carcinoma cells, 10 μM
Method: Induction of apoptosis in human colon cancer HCT-116 cell line by Compound 3 (FIG. 8A). The induction of apoptosis was quantitated as the percentage of cells in the sub-G1 region (hypodiplody) of cell cycle analysis. Briefly, cells (5×10^5) were centrifuged and fixed overnight in 70% ethanol at 4° C. Cells were washed 3 times with PBS, incubated for 1 h with 1 mg/ml RNaseA and 20 μg/ml propidium iodide at room temperature, and then analyzed for cell cycle with a Becton Dickinson FACSCalibur flow cytometer (San Jose, Calif.). HCT-116 cells were incubated for the indicated times with 10 μM Compound 3, and apoptosis was then quantitated as percentage of cells in the sub-G1 region in cell cycle analysis by flow cytometry. The position of the sub-G1 peak (hypodiploidy), integrated by apoptotic cells, as well as the G0/G1 and G2/M peaks are indicated by arrows. Untreated control cells were run in parallel. The percentage of cells with a DNA content less than G1 (sub-G1) is indicated in each histogram. The experiment shown is representative of three performed Expression of different apoptosis-related proteins during Compound 3 treatment (FIG. 8B), HCT-116 and SW620 cells were treated with 10 μM Compound 3 for the indicated times and analyzed by immunoblotting with specific antibodies for the indicated proteins. The migration positions of the different proteins are indicated. β-actin was used as a loading control. Data shown are representative of three experiments performed. About 10^7 cells were pelleted by centrifugation, washed with PBS, and lysed. […]

[8] = test system: haematological cancer cell lines; assay: Apoptosis induction in haematological cancer cell lines; assay type: cell-based

Fc1ccc(CNCCCC=C(c2ccccc2)c2ccccc2)cc1 [Compound 3, (5,5-diphenyl-pent-4-enyl)-(4-fluoro-benzyl)-amine hydrocloride]
IC50 at 72 h [1]: 19 µM | apoptosis [2]: More than 20% | apoptosis [3]: More than 20% | apoptosis [4]: More than 20% | apoptosis [5]: More than 20% | caspase-3 [6]: activation | cleavage of PARP [6]: rapid cleavage | Caspase-4 ([6]; EHEB cells): activated | caspase-9 ([6]; EHEB cells): activated | induction of autophagy (LC3-II formation) ([6]; EHEB cells): very rapid and potent induction of autophagy | caspase-9 [7]: induction | expression of Mcl-1S [7]: induced the expression | protein level of p53 [7]: increased | concentration inducing apoptosis in haematological cancer cell lines [8]: ~10^−6 M
